Results reported in ChEMBL document CHEMBL5303304, “EUbOPEN Chemogenomics Library - IncuCyte” (2023).

Legend:
Format in all cases: toxicity, cell-based
HEK-293T = assay: Incucyte cell viability with HEK293T; details: human, 10 µM, compound concentration 10 uM
Fibroblast = assay: Incucyte cell viability with human fibroblast; details: 10 µM, compound concentration 10 uM
U2OS = assay: Incucyte cell viability with U2OS; details: human, 10 µM, compound concentration 10 uM
Note: unitless GR value; below 1 slowed growth and below 0 cell loss.

Compound	Growth Rate (HEK-293T; 0 h, replicate number 1)	Growth Rate (HEK-293T; 0 h, replicate number 2)	Growth Rate (HEK-293T; 12 h, replicate number 2)	Growth Rate (Fibroblast; 6 h, replicate number 1)	Growth Rate (Fibroblast; 6 h, replicate number 2)	Growth Rate (Fibroblast; 12 h, replicate number 2)	Growth Rate (Fibroblast; 18 h, replicate number 2)	Growth Rate (Fibroblast; 24 h, replicate number 2)	Growth Rate (U2OS; 0 h, replicate number 1)	Growth Rate (U2OS; 0 h, replicate number 2)	Growth Rate (U2OS; 6 h, replicate number 1)	Growth Rate (U2OS; 12 h, replicate number 2)	Growth Rate (U2OS; 24 h, replicate number 1)	Growth Rate (Fibroblast; 0 h, replicate number 2)	Growth Rate (U2OS; 6 h, replicate number 2)	Growth Rate (U2OS; 12 h, replicate number 1)	Growth Rate (U2OS; 18 h, replicate number 1)	Growth Rate (U2OS; 18 h, replicate number 2)	Growth Rate (U2OS; 24 h, replicate number 2)	also measured
CCC(C)(C)CC[C@H](NC(=O)N1CCOCC1)C(=O)NC1(C#N)CCN(C)CC1	0.93	-0.17	0.91	0.76	-0.59	0.5	0.95	0.95	0.09	-0.03	1	0.96	0.88	–	–	–	–	–	–	–
CCCn1cc(-c2cc(C3C(=O)N(CC)c4ccc(C(F)(F)F)cc4N(c4ccccc4)C3=O)cc(OC)c2O)cn1 (stereo not given)	0.67	0.59	–	0.92	-0.56	0.46	0.74	0.85	–	–	–	–	0.91	0.51	–	–	–	–	–	–
CC(C)(O)CNC(=O)N1C(=O)N(c2cccc(C(F)(F)F)c2)C2=C(C(=O)CC2)[C@@H]1c1ccc(C#N)cc1	0.26	–	0.97	0.57	–	–	0.94	–	0.14	–	0.14	–	0.76	–	0.9	0.58	0.65	–	–	–
CC(C)(O)CNC(=O)N1C(=O)N(c2cccc(C(F)(F)F)c2)C2=C(C(=O)CC2)[C@H]1c1ccc(C#N)cc1	-0.47	–	0.98	–	–	–	0.82	0.97	0.26	–	0.67	0.96	0.86	0.22	–	0.56	0.85	–	–	Growth Rate (HEK-293T; 18 h, replicate number 1): 0.94; Growth Rate (HEK-293T; 18 h, replicate number 2): 1; Growth Rate (HEK-293T; 24 h, replicate number 1): 0.94
Cc1cc2c(cc(C(=O)N[C@H](CO)c3ccc(S(=O)(=O)CC(=O)O)cc3)n2C)c(Cl)c1Cl	0.87	–	–	0.15	–	0.77	0.68	–	–	–	0.61	0.94	0.95	–	0.7	–	0.92	0.79	1	Growth Rate (HEK-293T; 6 h, replicate number 1): 0.99; Growth Rate (HEK-293T; 24 h, replicate number 1): 0.99
CNC(=O)COc1cc2cc(Nc3nc(N4C[C@H](C)C[C@H](C)C4)ncc3Cl)ccc2n(C)c1=O	0.06	0.7	–	0.72	–	–	–	–	–	0.58	0.85	0.85	0.95	-0.82	–	–	0.92	–	–	Growth Rate (Fibroblast; 12 h, replicate number 1): 0.96; Growth Rate (Fibroblast; 18 h, replicate number 1): 0.7; Growth Rate (Fibroblast; 24 h, replicate number 1): 0.99
Cn1cnc(Cn2ccc3ccc(CNCc4[nH]c5ccccc5c4[C@H]4NC(=O)c5ccc(O)cc54)cc32)c1	-0.01	–	–	0.19	0.48	–	0.8	–	–	0.28	0.88	0.81	0.91	-0.84	0.3	0.98	–	0.67	0.9	Growth Rate (Fibroblast; 0 h, replicate number 1): -0.98; Growth Rate (Fibroblast; 18 h, replicate number 1): 0.68
Cc1cc(OCCC(C)(C)O)cc(C)c1-c1ccc(F)c2c1CC[C@H]2Oc1ccc2c(c1)OC[C@H]2CC(=O)O	0.74	0.8	0.86	0.77	–	-0.01	0.57	0.67	0.95	–	0.51	0.87	0.98	–	–	0.97	0.74	0.88	0.84	Growth Rate (HEK-293T; 6 h, replicate number 1): 0.79; Growth Rate (HEK-293T; 12 h, replicate number 1): 0.91; Growth Rate (HEK-293T; 18 h, replicate number 1): 0.98; Growth Rate (Fibroblast; 0 h, replicate number 1): -0.99
